The source of these data is US20260315431A1, “NANOMATERIAL ENCAPSULATED BIOFILM INHIBITORS FOR DENTAL CARIES TREATMENT” (THE UAB RESEARCH FOUNDATION, priority 2023, published 2026).

The test system of data set [1] is S. mutans UA159. Nature of the data set: Gnotobiotic rat model of dental caries (HA5 / HA6 study, Example 2). Set-up: key to Buccal Mean Caries Scores (±SEM) E / Buccal Mean Caries Scores (±SEM) Ds / Buccal Mean Caries Scores (±SEM) Dm / Buccal Mean Caries Scores (±SEM) Dx / Sulcal Mean Caries Scores (± SEM) E / Sulcal Mean Caries Scores (± SEM) Ds / Sulcal Mean Caries Scores (± SEM) Dm / Sulcal Mean Caries Scores (± SEM) Dx / Proximal Mean Caries Scores (± SEM) E / Proximal Mean Caries Scores (± SEM) Ds: Keyes method caries scores, mean ± SEM. Conditions: for effect on bacterial colonization / reduction in caries scores: 4-week treatment, 100 μM; for CFU/mL BAP: Blood agar plate; for CFU/mL BAP / CFU/mL MS / Buccal Mean Caries Scores (±SEM) Dx / Sulcal Mean Caries Scores (± SEM) Dx / Buccal Mean Caries Scores (±SEM) Dm / Sulcal Mean Caries Scores (± SEM) Dm / Buccal Mean Caries Scores (±SEM) Ds / Proximal Mean Caries Scores (± SEM) Ds / Sulcal Mean Caries Scores (± SEM) Ds / Buccal Mean Caries Scores (±SEM) E / Proximal Mean Caries Scores (± SEM) E / Sulcal Mean Caries Scores (± SEM) E: 100 μM (NaF 250 ppm); for CFU/mL MS: Mitis-Salivarius agar; for Buccal Mean Caries Scores (±SEM) Dx / Sulcal Mean Caries Scores (± SEM) Dx: dentinal extensive; for Buccal Mean Caries Scores (±SEM) Dx / Sulcal Mean Caries Scores (± SEM) Dx / Buccal Mean Caries Scores (±SEM) Dm / Sulcal Mean Caries Scores (± SEM) Dm / Buccal Mean Caries Scores (±SEM) Ds / Proximal Mean Caries Scores (± SEM) Ds / Sulcal Mean Caries Scores (± SEM) Ds / Buccal Mean Caries Scores (±SEM) E / Proximal Mean Caries Scores (± SEM) E / Sulcal Mean Caries Scores (± SEM) E: twice daily, 4 weeks, n = 5; for Buccal Mean Caries Scores (±SEM) Dm / Sulcal Mean Caries Scores (± SEM) Dm: dentinal moderate; for Buccal Mean Caries Scores (±SEM) Ds / Proximal Mean Caries Scores (± SEM) Ds / Sulcal Mean Caries Scores (± SEM) Ds: dentinal slight; for Buccal Mean Caries Scores (±SEM) E / Proximal Mean Caries Scores (± SEM) E / Sulcal Mean Caries Scores (± SEM) E: enamel. The format is in vivo, Fischer 344 rats infected with S. mutans UA159. The method, then:
To understand how these compounds affect the residential bacterial community, we conducted an in vivo evaluation of both HA5 and HA6 and compared to the untreated and NaF-treated rats using a well-established gnotobiotic rat model of dental caries^[50-54]. Treatment groups used in this study were inhibitor HA5 (100 μM), inhibitor HA6 (100 μM), and vehicle. A UA159 infection only group served as a negative control and a NaF (250 ppm) served as a positive control.
All rats from the experimental groups and from the control groups were colonized with S. mutans UA159. […] The effect of the treatment on dentinal moderate (Dm) and dentinal extensive (Dx) scores in the proximal area were not recorded as there were no observable caries lesions in both control and the treated groups. The observed reductions in caries scores by HA5 or HA6 were slightly lower than the positive control NaF treatment. However, it should be noted that the concentration of NaF (250 ppm=5.95 mM) is about 59-fold higher than the inhibitor treatment dose of 100 μM.
(§1) We used Fischer 344 rats that were bred and maintained in trexler isolators for this experiment. Male and female rat pups were removed from isolators at 20 days of age and randomly assigned into treatment groups of 5 rats/group in cages with filter tops. Rats were then infected with S. mutans UA159 strain by oral swabbing daily for four consecutive days with a fresh overnight culture of S. mutans UA159. Rats were provided with caries promoting Teklad Diet 305 containing […] (Harlan Laboratories, Inc., Indianapolis, IN) and sterile drinking water ad libitum. Oral swabs were taken 5 days post-infection and plated on Todd Hewitt (TH) agar plates and incubated at 37° C. in an environment of 5% CO2 in the air to confirm colonization. Rats were weighed at weaning and then weekly throughout the experiment. One-week post-infection, the molars of the rats were brushed twice daily for 4 weeks with the test compounds using camel-hair brushes. Four treatment groups used in this study were: 1) HA5 (100 μM); 2) […] (100 μM); 3) NaF (250 ppm); and 4) infected untreated rats. Drinking water was withheld for 60 min following each treatment with the compound. Animals were weighed at weaning and at the termination of the experiment. On day 60, the rats were sacrificed using CO2 followed by cervical dislocation or bilateral thoracotomy. The mandibles were surgically removed and cleaned of excess tissue to assess the level of bacteria present and the extent of caries formation. The right mandible from each rat was placed in a tube containing phosphate buffer (3 mL), placed on ice and sonicated (10 sec) to release bacteria from the molars. Each sample was serially diluted, plated on blood (BAP) and mitis-salivarius (MS) agar plates and incubated in an environment of 5% CO2 in air at 37° C. to quantify the level of total bacteria and S. mutans present in the plaque. The right and left mandibles from each rat were then placed in 95% ethanol for 24 h. The mandibles will be cleaned and stained overnight with murexide solution. After drying, the mandibles were sectioned and scored for caries activity using the Keyes method Caries scores were recorded for the buccal, sulcal and proximal molar surfaces individually so that differences among the surfaces can be distinguished. Statistical significance in the mean caries scores, colony-forming units (CFU)/mandible and body weights between groups of rats were determined by one-way analysis of variance (ANOVA) with the Tukey-Kramer multiple comparison test using the InStat program (GraphPad Prism 10.0.2.). When determining the statistical significance between the two groups, an unpaired t-test was applied. Differences between groups were considered significant at a P-value<0.05.

Data set [2] deals with rat oral microbiome. Nature of the data set: Rat oral microbiome (16S rRNA gene sequencing). The format is in vivo, Fischer 344 rats. Conditions: for overall effect on rat oral microbiome / oral microbiome composition, phylum level: 2-week and 4-week treatment; for oral microbiome composition, phylum level / oral microbiome composition, family level within Firmicutes: 100 μM; for oral microbiome composition, family level within Firmicutes: 4-week treatment; for beta diversity (Bray-Curtis, PERMANOVA): P-value>0.05 vs native community. On the procedure:
During this study, rat oral microbiome samples were collected from individual rats (n=5) at the following time points: before the experiment (Native), after inoculation of S. mutans and the start of a caries-promoting diet (Sm+CPD), after two weeks of treatment with the compound (2-week), and at the end of the study (END). The microbiota between the groups at different time points was analyzed for oral bacterial composition and abundance. Oral swabs collected before and after interventions with these compounds were analyzed using the 16s rRNA gene sequencing method. Both ‘within’ (alpha diversity) and ‘between’ (beta diversity) sample diversities were calculated over time for each treatment group using MicrobiomeAnalyst 2.0^[55].
as §1
In addition to recording buccal, sulcal and proximal molar surface caries scores and colony-forming units (CFU)/mandible and body weights between groups of rats as described above, plaque samples from rats treated or untreated were collected and DNA was extracted from each sample and used for PCR amplification of ~430 bp amplicons of 16S ribosomal DNA hypervariable regions V3 and V4, Illumina adaptors, and molecular barcodes as described^[66]. […]

A short description of data set [3]: Body weight of animals, HA5 / HA6 study. Conditions: for Weight: 100 μM (NaF 250 ppm); for weight loss: 4-week treatment, 100 μM. The format is in vivo, Fischer 344 rats.
Excerpt: as §1

“Also recorded” adds a separate entry of the source. Marks after values point to notes of the source that are not given here.

As to `O=C1/C(=C/c2cc(O)c(O)cc2O)Oc2ccccc21` [HA5, 2-[(2′,4′,5′-Trihydroxyphenyl)methylidene]-2,3-dihydro-1-benzofuran-3-one], in data set [1], the “effect on bacterial colonization” value is on record as “did not affect bacterial colonization significantly”, the “reduction in caries scores” value is given as “significant reductions in buccal caries scores; also recorded: can significantly reduce the caries scores in vivo”, the “CFU/mL BAP” value is on record as 3.9 ± 1.4 CFU/mL (×10^5) and the “CFU/mL MS” value is 2.2 ± 0.8 CFU/mL (×10^5). In data set [1], the “Buccal Mean Caries Scores (±SEM) Dx” value is reported as 2.2 ± 0.7, the “Sulcal Mean Caries Scores (± SEM) Dx” value stood at 1.0 ± 0.3, the “Buccal Mean Caries Scores (±SEM) Dm” value was found to be 3.6 ± 0.4 and the “Sulcal Mean Caries Scores (± SEM) Dm” value stood at 4.6 ± 0.2. Besides, in data set [1], the “Buccal Mean Caries Scores (±SEM) Ds” value is 6.6 ± 0.5, the “Proximal Mean Caries Scores (± SEM) Ds” value came to 0.0 ± 0.0, the “Sulcal Mean Caries Scores (± SEM) Ds” value is reported as 11.2 ± 0.6 and the “Buccal Mean Caries Scores (±SEM) E” value is listed as 7.8 ± 0.4. Further, in data set [1], the “Proximal Mean Caries Scores (± SEM) E” value turned out to be 1.0 ± 0.3 and the “Sulcal Mean Caries Scores (± SEM) E” value was determined as 16.4 ± 2.2. Moreover, in data set [2], the “overall effect on rat oral microbiome” value is listed as “without affecting the rat oral microbiome; also recorded: without perturbing the overall rat oral microbiome significantly; also recorded: do not perturb oral microbiome significantly”; the “oral microbiome composition, phylum level” value is listed as “did not perturb the overall rat oral microbiome at phylum levels significantly”; the “oral microbiome composition, family level within Firmicutes” value is “did not perturb the overall rat oral microbiome significantly within this phylum”; the “beta diversity (Bray-Curtis, PERMANOVA)” value is “without any significant deviations”. Also, in data set [3], the Weight is listed as 156 ± 16 g and the “weight loss” value was “did not experience significant weight loss”.

With `O=C1/C(=C/c2cc(O)c(O)c(O)c2)Oc2ccccc21` [HA6, 2-[(3′,4′,5′-Trihydroxyphenyl)methylidene]-2,3-dihydro-1-benzofuran-3-one], in data set [1], the “effect on bacterial colonization” value is reported as “did not affect bacterial colonization significantly”, the “reduction in caries scores” value is reported as “significant reductions in buccal caries scores; also recorded: can significantly reduce the caries scores in vivo”, the “CFU/mL BAP” value is on record as 1.9 ± 0.5 CFU/mL (×10^5) and the “CFU/mL MS” value is reported as 1.3 ± 0.4 CFU/mL (×10^5). In data set [1], the “Buccal Mean Caries Scores (±SEM) Dx” value is 1.2 ± 0.5, the “Sulcal Mean Caries Scores (± SEM) Dx” value was 1.6 ± 0.4, the “Buccal Mean Caries Scores (±SEM) Dm” value is on record as 4.0 ± 0.7 and the “Sulcal Mean Caries Scores (± SEM) Dm” value is given as 6.4 ± 0.4. Further, in data set [1], the “Buccal Mean Caries Scores (±SEM) Ds” value was 6.8 ± 0.5, the “Proximal Mean Caries Scores (± SEM) Ds” value came to 0.0 ± 0.0, the “Sulcal Mean Caries Scores (± SEM) Ds” value was 11.2 ± 0.7 and the “Buccal Mean Caries Scores (±SEM) E” value is listed as 8.2 ± 0.7. In data set [1], the “Proximal Mean Caries Scores (± SEM) E” value was determined as 1.2 ± 0.8 and the “Sulcal Mean Caries Scores (± SEM) E” value was found to be 14.6 ± 0.9. Besides, in data set [2], the “overall effect on rat oral microbiome” value is listed as “without affecting the rat oral microbiome; also recorded: without perturbing the overall rat oral microbiome significantly; also recorded: do not perturb oral microbiome significantly”; the “oral microbiome composition, phylum level” value is recorded as “did not perturb the overall rat oral microbiome at phylum levels significantly”; the “oral microbiome composition, family level within Firmicutes” value is given as “did not perturb the overall rat oral microbiome significantly within this phylum”; the “beta diversity (Bray-Curtis, PERMANOVA)” value is listed as “without any significant deviations”. In addition, in data set [3], the Weight was determined as 165 ± 13 g and the “weight loss” value is recorded as “did not experience significant weight loss”.

As for `[F-].[Na+]` [NaF, reference compound], in data set [1], the “CFU/mL BAP” value is given as 2.8 ± 0.7 CFU/mL (×10^5), the “CFU/mL MS” value is 1.6 ± 0.6 CFU/mL (×10^5), the “Buccal Mean Caries Scores (±SEM) Dx” value was 0.4 ± 0.2 and the “Sulcal Mean Caries Scores (± SEM) Dx” value was determined as 1.6 ± 0.5. Also, in data set [1], the “Buccal Mean Caries Scores (±SEM) Dm” value is recorded as 1.6 ± 0.5, the “Sulcal Mean Caries Scores (± SEM) Dm” value worked out at 5.4 ± 0.4, the “Buccal Mean Caries Scores (±SEM) Ds” value was 3.2 ± 0.9 and the “Proximal Mean Caries Scores (± SEM) Ds” value is on record as 0.0 ± 0.0. For the same molecule, in data set [1], the “Sulcal Mean Caries Scores (± SEM) Ds” value is on record as 10.4 ± 0.5, the “Buccal Mean Caries Scores (±SEM) E” value amounted to 6.2 ± 0.9, the “Proximal Mean Caries Scores (± SEM) E” value was determined as 0.0 ± 0.0 and the “Sulcal Mean Caries Scores (± SEM) E” value is on record as 15.2 ± 0.7. In data set [2] (NaF-treated group, PERMANOVA, P-value>0.001 (so in the source)), the “oral bacterial community after Sm+CPD (beta diversity)” value was “the community was shifted”. Also, the “abundance of the Streptococcaceae family” value in data set [2] (second week, not sustained till the end of the study) was “increase in the abundance of the Streptococcaceae family”. In data set [3], this molecule returned a Weight of 145 ± 12 g.
